Assay results from EP0272929B1, “Enkephalinase for therapeutic use” (GENENTECH, INC., priority 1986, dated 1988).
Entries after “also recorded” stand apart in the source; their conditions may differ.

Key:
[1] = test system: ferret tracheal smooth muscle; assay: Isometric tension of isolated tracheal smooth muscle rings (contraction by peptides, effect of inhibitors); type: cell-based
Method: Twenty-seven ferrets were anesthetized with pentobarbital sodium (45-60 mg/kg, i.p.), and the trachea were removed. Transverse rings (8 mm long) were cut from the trachea and mounted in glass chambers filled with 14 ml of Krebs-Henseleit solution of the following composition (in mMoles/L): NaCl 118, KCl 5.9, CaCl₂ 2.5, MgSO₄ 1.2, NaH₂PO4 1.2, NaHCO₃ 25.5, glucose 5.6, 0.1% bovine serum albumin, and penicillin-streptomycin (100 Units/ml). The soluiton was maintained at 37°C and was aerated continuously in a mixture of 95% O₂-5% CO₂, which produced a pH of 7.4. Six tracheal rings were studied concurrently.
(§1) The tracheal rings were connected to strain gauges (Grass FT03) for continuous recording of isometric tension, and the rings were placed between two rectangular platinum electrodes (6 x 40 mm) for electrical field stimulation. The rings were initially stretched to a tension of 20 g for 30 seconds and were then allowed to equilibrate for 1 hour while resting tension was adjusted to 4 g (Skoogh, B-E. et al., J. Appl. Physiol. 53: 253-257 [1982]). During equilibration, the medium was changed every 15 minutes. […] Id.
The responsiveness to substance P (using concentrations ranging from 10⁻⁸ M to 10⁻⁵ M) and to leu-thiorphan and cumulative dose-response curves to substance P (Peninsula Labs) were obtained. Each succeeding concentration of substance P was added after contraction reached a plateau. After completion of the first dose-response curve to substance P, leu-thiorphan (10⁻⁵ M, Squibb Pharmaceutical) was added to the organ bath. Following a 15 minute incubation, a second dose-response curve to substance P was obtained.
The N-terminal fragment, substance P₁₋₉ was studied because enkephalinase cleaves substance P between the 9 and 10 positions (Matsas, R. et al., Proc. Natl. Acad. Sci. [USA] 80: 3111-3115 [1983]), generating that fragment. (10⁻⁵ M Peninsula Labs). Experiments were also carried out with (DPro², DTrp^7,9)-substance P (10⁻⁵ M) (Peninsula Labs), a substance P antagonist (Hakanson, R. et al., Br. J. Pharmac. 77: 697-700 [1982]) by adding the antagonist after the response to substance P (10⁻⁶ M) and leu-thiorphan (10⁻⁵ M) reached a plateau.
Data were expressed as mean ± SE. For the dose-response curves to substance P, the means between two groups at each concentration were compared by a paired t test. For the studies of electrical field stimulation, responses were compared by one way analysis of variance and Newman-Keuls multiple range test. Significance was accepted at P < 0.05. […]

[2] = test system: ferret tracheal smooth muscle; assay: Electrical field stimulation-induced contraction of isolated tracheal smooth muscle; type: cell-based; details: 5 Hz; leu-thiorphan 10⁻⁵ M, 15 min
Method: as §1
Increasing concentrations of leu-thiorphan (10⁻¹¹ to 10⁻⁴ M) were added and the stimuli repeated to determine whether leu-thiorphan modulated electrical field stimulation-induced contractions. […] After determining control responses to electrical field stimulation (5 Hz), leu-thiorphan (10⁻⁵ M; 15 min) was added, the stimulus repeated, (DPro²,DTrp^7,9)substance P, the substance P antagonist (10⁻⁵ M; 15 min; Peninisula Labs) was added, and the stimulus was repeated.
Data were expressed as mean ± SE. For the dose-response curves to tachykinins the means between two groups at each concentration were analyzed by an unpaired t test. For the study of electrical field stimulation, responses were compared by one way analysis of variance and Newman-Keuls multiple range test. Significance was accepted at p<0.05.

[3] = test system: longitudinal ileal smooth muscle; assay: Contraction of longitudinal ileal smooth muscle; type: cell-based, ferrets; details: inhibitor 10⁻⁵ M
Source text: Using methods similar to those with ferret airway smooth muscle, described in Example 7, longitudinal ileal smooth muscle was examined. […] Leu-thiorphan (10⁻⁵ M) shifted the dose response curve to lower concentrations by 1 log unit.

enkephalinase = target: T1, enkephalinase (Mustela putorius furo, UniProt M3XUG8); assay: Enkephalinase activity of tissue membrane fractions: cleavage of (3H-Tyr1,DAla2,Leu5)enkephalin, inhibition by inhibitors and substrates; type: biochemical, ferret
T1 sequence (M3XUG8 2-749): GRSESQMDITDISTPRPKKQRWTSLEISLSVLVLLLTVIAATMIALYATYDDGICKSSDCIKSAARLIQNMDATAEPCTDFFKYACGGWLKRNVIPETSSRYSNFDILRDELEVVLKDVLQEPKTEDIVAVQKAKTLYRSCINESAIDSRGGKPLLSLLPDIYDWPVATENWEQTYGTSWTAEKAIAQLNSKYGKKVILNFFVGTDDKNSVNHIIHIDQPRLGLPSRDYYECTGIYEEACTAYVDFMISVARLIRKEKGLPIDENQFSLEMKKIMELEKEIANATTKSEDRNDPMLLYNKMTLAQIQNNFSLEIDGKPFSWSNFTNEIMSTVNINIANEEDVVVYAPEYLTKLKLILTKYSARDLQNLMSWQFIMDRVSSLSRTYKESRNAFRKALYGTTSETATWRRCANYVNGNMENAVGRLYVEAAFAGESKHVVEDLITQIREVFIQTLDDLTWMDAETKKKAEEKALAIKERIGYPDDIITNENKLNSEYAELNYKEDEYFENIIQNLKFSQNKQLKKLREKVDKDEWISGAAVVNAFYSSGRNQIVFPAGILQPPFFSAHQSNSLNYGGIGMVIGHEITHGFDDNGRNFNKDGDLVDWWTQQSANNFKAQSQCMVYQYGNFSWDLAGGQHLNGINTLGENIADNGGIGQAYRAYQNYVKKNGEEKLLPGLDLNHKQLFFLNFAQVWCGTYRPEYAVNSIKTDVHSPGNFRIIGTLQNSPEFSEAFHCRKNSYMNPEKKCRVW
Method: In this series of experiments, the tissue locations of enkephalinase were determined. Enkephalinase was purified from the ferret kidney to near homogeneity using published methods (Malfroy and Schwartz, Supra). Enkephalinase activity in membrane fractions derived from the vagus nerve, tracheal epithelium, submucosa, muscle, lungs, and kidneys of ferrets was determined. Ferrets were anesthetized, and the vagi, trachea, lungs, and kidneys removed. The tracheal epithelium, submucosa, and muscle were separated from each other by incubating the trachea in Ca⁺⁺-free medium for 15 minutes, after which time, the epithelium was easily removed. The muscle was then separated from the gland-containing submucosa. Each tissue was minced and then homogenized in 50mM HEPES buffer (pH 7.4) using a Polytron homogenizer.
Enkephalinase activity was measured by determining the rates of cleavage of (³H-Tyr¹, DAla², Leu⁵)enkephalin (Research Products International) by membrane fractions or purified enkephalinase. Fifty µl of membrane fraction was incubated for 40 minutes at room temperature with 50 µl of buffer containing (³H-Tyr¹, DAla²,Leu⁵)enkephalin (20nM), after which time the reaction was quenched by adding 50 µl of 2N HCl.
Seventy-five µl of this solution was applied to columns containing polystyrene beads (Poropak-Q); the characteristic metabolite, ³H-Tyr-DAla-Gly, eluted with water, and the radioactivity determined. The protein concentrations were determined by the Bradford procedure (Bradford, M.M. Analytical Biochem. 72:248-254 [1976]), and results of enkephalinase activities were expressed as fmoles substrate cleaved per min per mg protein.

[4] = target: T2, purified rat kidney enkephalinase (Rattus norvegicus, UniProt P07861); type: biochemical; details: peptide 10⁻⁴M, 50 ng enzyme, 30 minutes at 37°C
T2 construct: purified rat kidney enkephalinase (50 ng in 150 ul 50 mM, pH7.4 HEPES buffer containing 0.02% Triton X-100); from tissue; host or cells: rat kidney
T2 sequence (P07861 1-750): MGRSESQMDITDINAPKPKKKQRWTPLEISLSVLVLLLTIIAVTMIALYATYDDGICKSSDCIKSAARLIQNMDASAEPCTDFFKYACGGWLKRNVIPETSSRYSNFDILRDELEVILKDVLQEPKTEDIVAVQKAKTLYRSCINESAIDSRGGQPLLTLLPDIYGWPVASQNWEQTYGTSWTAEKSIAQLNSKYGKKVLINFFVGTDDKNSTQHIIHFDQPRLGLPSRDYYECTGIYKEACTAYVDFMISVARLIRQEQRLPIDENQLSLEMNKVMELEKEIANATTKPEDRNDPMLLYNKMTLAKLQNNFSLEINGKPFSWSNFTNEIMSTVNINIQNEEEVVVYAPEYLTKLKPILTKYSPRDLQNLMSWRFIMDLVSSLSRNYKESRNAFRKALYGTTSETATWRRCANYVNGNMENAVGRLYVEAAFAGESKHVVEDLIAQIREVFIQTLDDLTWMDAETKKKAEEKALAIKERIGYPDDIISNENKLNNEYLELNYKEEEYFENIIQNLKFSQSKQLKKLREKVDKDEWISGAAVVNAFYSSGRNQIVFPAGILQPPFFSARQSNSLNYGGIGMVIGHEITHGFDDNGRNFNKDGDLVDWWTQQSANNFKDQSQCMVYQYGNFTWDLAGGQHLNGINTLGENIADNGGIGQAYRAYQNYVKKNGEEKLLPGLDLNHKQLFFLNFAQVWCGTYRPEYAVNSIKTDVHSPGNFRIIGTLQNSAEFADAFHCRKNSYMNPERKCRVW

Compound	effect alone on resting tension ([1]; 10⁻⁵ M)	effect on resting tension ([1]; concentrations up to 10⁻⁴ M)	shift of the dose-response curve to neurokinin A to lower concentrations ([1]; inhibitor 10⁻⁵ M)	shift of the dose-response curve to neurokinin B to lower concentrations ([1]; inhibitor 10⁻⁵ M)	shift of the dose-response curve to substance P to lower concentrations ([1]; inhibitor 10⁻⁵ M)	response to electrical field stimulation, percent of control responses without added drugs [2] [%]	shift of the dose response curve to substance P to lower concentrations [3] [log unit]	Ki (enkephalinase; Epthelium membrane fraction) [nM]	Ki (enkephalinase; Kidney) [nM]	Ki (enkephalinase; Lung membrane fraction) [nM]	Ki (enkephalinase; Muscle membrane fraction) [nM]	Ki (enkephalinase; Submucosa membrane fraction) [nM]	Ki (enkephalinase; Vagus/N. membrane fraction) [nM]	fraction of the peptide degraded / hydrolyzed [4] [%]
CC(C)C[C@H](NC(=O)C(CS)Cc1ccccc1)C(=O)O (some centres unmarked) [leu-thiorphan, Leucine-thiorphan]	no significant effect on resting tension	did not alter resting tension in any experiment	two-log units	three-log units	approximately one log unit; also recorded: approximately one-log unit	118 ± 1.7	1	8.7	3.3	2.8	2.1	2.8	2.1	
bombesin														80
